{"source": "paper PMC10016038", "about": "“Enhanced Endosomal Signaling and Desensitization of GLP-1R vs GIPR in Pancreatic Beta Cells” (Endocrinology, 2023)", "key": {"[1]": {"system": "cAMP response in mouse islet beta cells", "assay": "cAMP FRET assay, Pdx1-CreERT/CAMPER islets", "assay_type": "cell-based", "conditions": "100 nM, n = 4", "procedure": "Nondiabetic mice of both sexes were used for islet isolation. Briefly, pancreata were infused via the common bile duct with RPMI-1640 medium containing 1 mg/mL collagenase from Clostridium histolyticum (Nordmark Biochemicals), dissected, and incubated in a water bath at 37 °C for 10 minutes. Islets were subsequently washed and purified using a Histopaque gradient (Histopaque-1119, 11191, Sigma-Aldrich, and Histopaque-1083, 10831, Sigma-Aldrich). Isolated islets were allowed to recover overnight at 37 °C in 5% CO2 in RPMI-1640 supplemented with 10% FBS and 1% penicillin/streptomycin. […]\nCAMPER reporter mice ([30]), with conditional expression of the cAMP fluorescence resonance energy transfer (FRET) biosensor ^TEPAC^VV ([31]), were purchased from Jackson Laboratory (Stock No: 032205) and crossed with Pdx1-Cre^ERT mice (in house) to generate mice with inducible ^TEPAC^VV expression from pancreatic beta cells, used to isolate islets for ex vivo cAMP FRET assays. […] Raw intensity traces for YFP and CFP fluorescence were extracted from whole islet ROIs using Fiji and YFP/CFP ratios calculated for each ROI and time point. Responses were plotted relative to the average fluorescence intensity per islet during the 6 mM glucose baseline period, before agonist addition. […]"}, "INS-1 832/3 WT cells": {"system": "INS-1 832/3 WT cells", "assay": "Insulin secretion assay, INS-1 832/3 WT cells", "assay_type": "cell-based, rat", "conditions": "100 nM, 11 mM glucose; WT n = 3", "procedure": "(§1) At the end of the treatments, the supernatant containing the secreted insulin was collected, centrifuged at 1000g for 3 minutes, and transferred to a fresh tube. To determine total insulin content, cells were lysed using KRBH buffer + 1% w/v BSA + 1% v/v Triton X-100 (Sigma). The lysates were sonicated 3 × 10 seconds in a water bath sonicator and centrifuged at 10 000g for 10 minutes, and the supernatants collected. The samples were stored at −20 °C until the insulin concentration was determined using an Insulin Ultra-Sensitive HTRF Assay kit (62IN2PEG, Cisbio, Codolet, France) according to the manufacturer's instructions.\n(§2) Figure 7. Functional analysis of GLP-1R vs GIPR signaling in beta cells. […] Data are mean ± SEM, compared by paired t tests; *P < .05; ns, nonsignificant."}, "GIPR-NanoLuc": {"system": "GIPR-NanoLuc", "assay": "Mini-Gs-Venus recruitment NanoBRET, GIPR", "assay_type": "cell-based", "conditions": "100 nM, n = 4", "procedure": "Mini-Gs-Venus was a gift from Prof. Nevin Lambert, Augusta University, USA. INS-1 832/3 GLP-1R KO or GIPR KO cells were seeded in 12-well plates and co-transfected with 0.5 µg mini-Gs-Venus and either 0.5 µg GLP-1R- or GIPR-NanoLuc, respectively.\nAll NanoBiT and NanoBRET readings were obtained in a Flexstation 3 plate reader. Briefly, 24 hours after transfection, cells were detached, resuspended in NanoGlo Live Cell Reagent (Promega) with furimazine (1:20 dilution) and seeded into white 96-well half-area plates. […] Readings were normalized to well baseline and then to average vehicle-induced signal to establish the agonist-induced effect. AUCs from response curves were calculated for each agonist concentration and fitted to four-parameter curves using Prism 9 (GraphPad).\nFigure 5. Beta cell GLP-1R vs GIPR G protein subtype and β-arrestin 2 recruitment characteristics. (A) Kinetics of Gαs, Gαq, Gαi, and β-arrestin 2 recruitment to the GLP-1R assessed by NanoBiT complementation assay in INS-1 832/3 GLP-1R KO cells transiently expressing GLP-1R-SmBiT and the corresponding mini-G protein subtype or β-arrestin 2. […] (B) Kinetics of Gαs, Gαq, Gαi, and β-arrestin 2 recruitment to the GIPR assessed by NanoBiT complementation assay in INS-1 832/3 GIPR KO cells transiently expressing GIPR-SmBiT and the corresponding mini-G protein subtype or β-arrestin 2. […]"}, "[2]": {"system": "INS-1 832/3 GIPR KO cells", "assay": "Insulin secretion assay, GIPR KO cells", "assay_type": "cell-based, rat", "conditions": "100 nM, 11 mM glucose; n = 4", "procedure": "as §1, §2"}, "SNAP-tagged human GIPR [3]": {"system": "SNAP-tagged human GIPR", "assay": "Colocalization with Rab5-Venus, SNAP-GIPR", "assay_type": "cell-based", "conditions": "100 nM GIP", "description": "To determine the intracellular destination of internalized GLP-1Rs/GIPRs more precisely, we performed concentration response bystander NanoBRET assays using C-terminal NanoLuc-fused SNAP-tagged GLP-1R vs GIPR and either KRAS-Venus (plasma membrane) or Rab5-Venus (early endosome) co-expressed transiently in INS-1 832/3 cells (Fig. 2)."}, "SNAP-tagged human GIPR [4]": {"system": "SNAP-tagged human GIPR", "assay": "RICS receptor diffusion / clustering, SNAP-GIPR", "assay_type": "cell-based", "conditions": "5 minutes, 100 nM; n = 4"}, "SNAP-tagged human GLP-1R": {"target": "SNAP-tagged human GLP-1R (Homo sapiens, UniProt P43220)", "sequence (P43220 24-463)": "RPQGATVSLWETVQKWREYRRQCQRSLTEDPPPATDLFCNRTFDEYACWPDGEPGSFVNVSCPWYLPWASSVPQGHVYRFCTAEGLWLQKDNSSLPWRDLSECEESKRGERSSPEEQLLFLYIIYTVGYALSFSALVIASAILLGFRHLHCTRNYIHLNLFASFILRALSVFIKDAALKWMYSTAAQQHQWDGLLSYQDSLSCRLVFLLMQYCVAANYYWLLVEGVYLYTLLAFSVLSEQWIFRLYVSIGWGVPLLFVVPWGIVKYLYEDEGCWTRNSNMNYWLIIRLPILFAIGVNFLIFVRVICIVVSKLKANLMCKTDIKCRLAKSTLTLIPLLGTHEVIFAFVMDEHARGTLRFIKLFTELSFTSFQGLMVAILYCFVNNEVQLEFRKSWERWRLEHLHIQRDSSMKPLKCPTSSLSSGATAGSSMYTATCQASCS", "assay": "TR-FRET receptor clustering, SNAP-GLP-1R", "assay_type": "cell-based", "conditions": "100 nM, 37 °C, n = 4"}, "[5]": {"system": "INS-1 832/3 GLP-1R KO cells", "assay": "Insulin secretion assay, GLP-1R KO cells", "assay_type": "cell-based, rat", "conditions": "100 nM, 11 mM glucose; n = 5", "procedure": "as §1, §2"}}, "note": "“Also recorded” adds a separate entry of the source."}
{"substance": "GIP(1-42)", "values": [{"measurement": "cAMP response, GIP compared with GLP-1, mouse islet beta cells", "setting": "[1]", "result": "a tendency replicated in primary mouse islet beta cells; also recorded: nonsignificant tendency toward increased cAMP"}, {"measurement": "Insulin secretion, GIP compared with GLP-1", "setting": "INS-1 832/3 WT cells", "result": "nonsignificant tendency toward improvement; also recorded: tendency toward increased"}, {"measurement": "Gαs recruitment to the GIPR compared to the GLP-1R", "setting": "GIPR-NanoLuc", "result": "significantly reduced Gαs recruitment"}, {"measurement": "Insulin secretion response in GIPR KO cells", "setting": "[2]", "result": "abolished"}, {"measurement": "Localization of the fraction of internalized GIPRs", "setting": "SNAP-tagged human GIPR [3]", "result": "also localized to Rab5-Venus-positive endosomes"}, {"measurement": "SNAP-GIPR localization", "setting": "SNAP-tagged human GIPR [3]", "result": "a sizable amount of SNAP-GIPR was still present at the plasma membrane"}, {"measurement": "GIPR diffusion (RICS) upon stimulation", "setting": "SNAP-tagged human GIPR [4]", "result": "marked slowing of diffusion"}, {"measurement": "GLP-1R clustering", "setting": "SNAP-tagged human GLP-1R", "result": "not detectable"}]}
{"substance": "GLP-1(7-36)NH2", "values": [{"measurement": "Insulin secretion response in GLP-1R KO cells", "setting": "[5]", "result": "abolished"}]}
